Experimental data from patent publication US7465848B2, “Zebrafish assay” (priority 2002, dated 2008).
Values belong to the compound of their own block, whether it stands above or below them.

Experiments:
zebrafish KCNH2 = assay: Zebrafish KCNH2 knock-down with antisense morpholino, heart rate; assay type: in vivo, Danio rerio; conditions: about 5 nL injected at the single cell stage
Experimental: Approximately 5 nL of the morpholino antisense oligonucleotide diluted in Danieau's solution at the concentrations shown were injected into the zebrafish embryo at the single cell stage. The zebrafish KCNH2 morpholino was directed against the splice donor site of the sixth exon of the zebrafish KCNH2 ortholog (5′-[…]-3′; SEQ ID NO:2).

zebrafish = conditions: for effect on zebrafish heart rate (bradycardia) in the initial screen: compound added to medium at 48 hpf, 1, 10, 100 mcg/ml, highest non-lethal concentration, ventricular rate
Experimental: TubingenAB zebrafish embryos were reared in E3 Media (5 mM NaCl, 0.17 mM KCl, 0.33 mM MgCl2, 0.33 mM CaCl2). At 24 hours post fertilization (hpf) the embryos were distributed into 96 well plates, 3-5 embryos per well with […] of E3 supplemented with phenylthiourea at 0.03 g/l to inhibit pigmentation.
DMSO alone was used as a control. HR measurement: 15 second video recordings were obtained from each well using a Nikon TE200 microscope fitted with a computer controlled stage, and a Hamamatsu ORCA-ER camera. One hundred twenty-eight frames with an exposure time of 90 ms were recorded for each video. Digital movies were taken for each well, one from each quadrant. These video clips were stored digitally.
Offline analysis was performed with commercially available imaging software (Metamorph Software, Universal Imaging). The average pixel density was measured for a region of interest over the heart, and these densities were plotted against time. […] The frequency spectrum was plotted and the peak was reported in a spreadsheet. Manual review of both time domain and frequency domain data as well as the peak frequency was performed to ensure the validity of the data. Fast-Fourier Transform was performed to determine HR. […] Each compound was tested at 1, 10, and 100 mcg/ml and the highest, non-lethal concentration chosen for HR effect. A two-tailed Student's t-test was performed to determine statistical significance.

Compound: 5′-CCGTCGTACAGGCATGTTGTCCTA-3′ (all phosphorodiamidate morpholino (PMO)) [antisense morpholino]
effect of KCNH2 antisense morpholino on zebrafish heart rate (zebrafish KCNH2): elicited bradycardia in a dose-dependent manner
effect of KCNH2 antisense morpholino on zebrafish heart rate (zebrafish KCNH2; listed as antisense morpholino oligonucleotides directed against zebrafish KCNH2): dose-dependent effect on HR

Compound: CCN(CC)CCNC(=O)c1ccc(NC(C)=O)cc1 [N-acetyl-procainamide]
effect on zebrafish heart rate (bradycardia) in the initial screen (zebrafish): failed to cause bradycardia

Compound: CN/C(=N/CCSCc1nc[nH]c1C)NC#N [cimetidine]
drug-drug interaction on HR, cimetidine and terfenadine (zebrafish; in vivo): interaction of cimetidine and terfenadine

Compound: COc1cc(N)c(Cl)cc1C(=O)NC1CCN(CCCOc2ccc(F)cc2)CC1OC (centres unmarked) [cisapride]
change of ED50 on HR for cisapride with increasing doses of erythromycin (zebrafish; cisapride in combination with erythromycin (FIG. 2C)): ten-fold decrease

absorption into the zebrafish embryo (zebrafish; in vivo): is absorbed
Compound: CC[C@H]1OC(=O)[C@H](C)[C@@H](O[C@H]2C[C@@](C)(OC)[C@@H](O)[C@H](C)O2)[C@H](C)[C@@H](O[C@@H]2O[C@H](C)C[C@H](N(C)C)[C@H]2O)[C@](C)(O)C[C@@H](C)C(=O)[C@H](C)[C@@H](O)[C@]1(C)O [erythromycin]

drug-drug interaction on HR, ketoconazole and terfenadine (zebrafish; in vivo): faithfully reproduced
Compound: CC(=O)N1CCN(c2ccc(OCC3COC(Cn4ccnc4)(c4ccc(Cl)cc4Cl)O3)cc2)CC1 (centres unmarked) [ketoconazole]

Compound: N=C(N)c1ccc(OCCCCCOc2ccc(C(=N)N)cc2)cc1 [pentamadine]
effect on zebrafish heart rate (bradycardia) in the initial screen (zebrafish): failed to cause bradycardia
